Source: article PMC8234231, “In Vitro Inhibition of Renal OCT2 and MATE1 Secretion by Antiemetic Drugs” (International Journal of Molecular Sciences, 2021)

Legend:
[1] = Bidirectional transcellular flux of ASP+ in control MDCK cells; assay type: cell-based, canine; settings: dog, ASP+ 25 μM, read-out: B-to-A transport relative to A-to-B transport
Protocol: (§1) Figure 4 Transcellular Flux of ASP^+ in Control and OCT2/MATE1-Transfected MDCK cells. (A). Protein expression of OCT2 (~63 kDa,) and MATE1 (~54 kDa) in vector control MDCK cells (lanes 1–2) and OCT2/MATE1 double transfected (lanes 3–4). (B). Cells were incubated with ASP^+ (25 μM) in either apical or basolateral media for 120 min and fluorescence in apical or basolateral media was quantified (A-to-B: apical-to-basolateral; B-to-A: basolateral-to-apical). ^† p < 0.05 compared to A-to-B. ^‡ p < 0.05 compared to vector. (C). Cells were incubated with ASP^+ (25 μM) in basolateral media and positive control inhibitors in apical and basolateral media for 120 min. Fluorescence was measured in the apical chamber. (D). Intracellular fluorescence was quantified and normalized to protein concentration. Data are expressed as mean ± SE (n = 3). * p < 0.05 compared to no inhibitor. CIM–Cimetidine; PYR–Pyrimethamine; OLA–Olanzapine.
(§2) Cells were incubated with 5-HT3 antagonists in the apical chamber in HBSS pH 6.0 and 5-HT3 antagonists with ASP^+ (25 μM) in the basolateral chamber in HBSS pH 7.4 and incubated at 37 °C for 120 min. […]

MATE1 = target: T1, MATE1 (Homo sapiens, UniProt Q96FL8); test: Concentration-dependent uptake of ASP+ in MATE1-expressing HEK293 cells; assay type: cell-based
T1 construct: expressed in transfected cells; gift of Dr. Kathy Giacomini, UCSF
T1 sequence (Q96FL8 1-570): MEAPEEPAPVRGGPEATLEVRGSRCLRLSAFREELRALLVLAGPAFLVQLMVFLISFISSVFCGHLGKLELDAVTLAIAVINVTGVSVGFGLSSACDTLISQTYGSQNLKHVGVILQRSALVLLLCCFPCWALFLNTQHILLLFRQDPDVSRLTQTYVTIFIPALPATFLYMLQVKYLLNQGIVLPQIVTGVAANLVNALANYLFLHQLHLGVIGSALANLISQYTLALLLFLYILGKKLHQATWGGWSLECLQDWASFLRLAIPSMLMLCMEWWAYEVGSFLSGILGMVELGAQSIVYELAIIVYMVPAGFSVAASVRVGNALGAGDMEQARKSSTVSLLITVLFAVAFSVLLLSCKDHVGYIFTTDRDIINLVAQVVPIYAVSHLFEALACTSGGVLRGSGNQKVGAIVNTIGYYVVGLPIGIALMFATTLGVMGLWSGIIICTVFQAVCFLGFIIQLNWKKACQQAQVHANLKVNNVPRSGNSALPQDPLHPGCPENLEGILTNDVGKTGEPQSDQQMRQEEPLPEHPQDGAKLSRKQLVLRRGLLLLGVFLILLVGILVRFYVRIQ
Protocol: After washing once with prewarmed Hank’s Buffered Saline Solution (HBSS), cells were preincubated for 30 min at 37 °C with various 5-HT3 antagonists for OCT2 cells or in a 30 mM NH4Cl solution in HBSS at pH 6.5 for MATE1 cells for intracellular acidification. […] […] […] Media was removed and washed four times with ice-cold HBSS. Cells were lysed with 1% Triton X-100. […] Experiments were repeated three separate times, with three to four replicates in each experiment.
GraphPad Prism v6 (GraphPad Software, La Jolla, CA, USA) was used for statistical analysis.

human OCT2 and MATE1 = test: Bidirectional transcellular flux of ASP+ in OCT2/MATE1 double-transfected MDCK cells; assay type: cell-based; settings: ASP+ 25 μM, 120 min
Protocol: as §1, §2

OCT2 and MATE1 = test: as above; assay type: cell-based, human; settings: human, ASP+ 25 μM, read-out: B-to-A/A-to-B efflux ratio
Protocol: as §1, §2

[2] = tested on: empty vector (EV) HEK293 cells; test: Concentration-dependent uptake of ASP+ in empty vector HEK293 cells; assay type: cell-based, human; settings: EV HEK293, 0–100 μM, 1 min
Protocol: Figure 2 Time and Concentration-Dependent Accumulation of ASP^+ in HEK293 Cells Overexpressing OCT2 or MATE1. HEK cells expressing empty vector (EV), OCT2, or MATE1 were incubated for different time periods (0.5–20 min, 10 μM ASP^+, 37 °C) to evaluate time-dependent uptake (A) or with increasing concentrations of ASP^+ (0–100 μM, 1 min 37 °C) for concentration-dependent uptake (B) on a shaker. Specific transport uptake is shown in dashed lines. Intracellular fluorescence was quantified and normalized to protein concentration. Data are presented as mean ± SE (n = 3).
OCT2- and MATE1-overexpressing HEK293 cells were seeded in clear poly-^D-lysine-coated 24-well plates (Fisher Scientific, Hanover Park, IL, USA) and grown for 24 h until approximately 90% confluent. […]
GraphPad Prism v6 (GraphPad Software, La Jolla, CA, USA) was used for statistical analysis. Km and Vmax were calculated using nonlinear regression (Michaelis–Menten enzyme kinetics equation, (Y = Vmax × X/(Km + X), fit for least squares). Data with two variables were analyzed using a two-way ANOVA followed by a one-way ANOVA and/or Dunnett’s post-hoc test for multiple comparisons. IC50 values were calculated via a nonlinear regression to fit least squares. Differences were considered statistically significant at p < 0.05.

MDCK monolayers = test: Passive permeability of lucifer yellow across MDCK monolayers; assay type: in vitro ADME, canine; settings: lucifer yellow 20 μM, B-to-A, 1 h
Protocol: Both MDCK cell lines were seeded on 0.4 μm transwell inserts (VWR, Radnor, PA, USA) at a density of 2 × 10^5 cells/cm^2. […] The integrity of MDCK monolayers was verified by measuring transepithelial electrical resistance (TEER) >150 Ω*cm^2 using an epithelial voltohmmeter, EVOM^2 (World Precision Instruments, Sarasota, FL). Proper formation of tight junctions was also verified by measurement of passive permeability of lucifer yellow in the basolateral-to-apical (B-to-A) direction. Lucifer yellow (20 μM) was applied to the basolateral chamber for 1 h, and media were collected from the apical chamber.

| Average passive permeability (Papp) (MDCK monolayers) [×10⁻⁶ cm/s] | Compound | efflux ratio at 90 min, 25 μM ([1]; 90 min) | efflux ratio at 120 min, 25 μM ([1]; 120 min) | Vmax of ASP+ uptake (MATE1; MATE1-expressing HEK293, 0–100 μM, 1 min) [nmol/mg/min] | Km at 1 min (MATE1; human, HEK293 cells overexpressing MATE1, pH 7.4, MATE1-expressing HEK293, 0–100 μM) [µM] | B-to-A transport relative to A-to-B transport (human OCT2 and MATE1) | efflux ratio at 120 min, 25 μM (OCT2 and MATE1) | Km [2] [µM] | Vmax of ASP+ uptake [2] [nmol/mg/min] |
| --- | --- | --- | --- | --- | --- | --- | --- | --- | --- |
|  | CN(C)c1ccc(C=Cc2cc[n+](C)cc2)cc1.[I-] [ASP^+, 4-(4-(Dimethylamino)styryl)-N-methylpyridinium iodide] | 1.3 | 1.7 | 3.4 | 8.2 | up to 2.8 fold | 2.7 | 37.3 | 1.9 |
| 0.7 | Lucifer yellow |  |  |  |  |  |  |  |  |
